Source: the NIST ThermoML archive (doi:10.1021/je900722m)

Assay: xn = mol fraction of the nth substance listed
Settings: 101 kPa, Liquid

CC(C)CO [2-methyl-1-propanol] + CCCCO
Settings | mass density [kg/m3] | viscosity [mPa·s]
303.15 K, x2 = 0.101 | 794.896 | 3.447
303.15 K, x2 = 0.2029 | 795.74 | 3.443
303.15 K, x2 = 0.3008 | 796.558 | 3.389
303.15 K, x2 = 0.4 | 797.382 | 3.313
303.15 K, x2 = 0.5 | 798.209 | 3.237
303.15 K, x2 = 0.5999 | 799.026 | 3.166
303.15 K, x2 = 0.6999 | 799.838 | 3.102
303.15 K, x2 = 0.7993 | 800.635 | 3.04
303.15 K, x2 = 0.8995 | 801.426 | 2.971
308.15 K, x2 = 0.101 | 790.969 | 2.987
308.15 K, x2 = 0.2029 | 791.819 | 2.983
308.15 K, x2 = 0.3008 | 792.643 | 2.939
308.15 K, x2 = 0.4 | 793.476 | 2.871
308.15 K, x2 = 0.5 | 794.307 | 2.804
308.15 K, x2 = 0.5999 | 795.132 | 2.752
308.15 K, x2 = 0.6999 | 795.953 | 2.708
308.15 K, x2 = 0.7993 | 796.757 | 2.669
308.15 K, x2 = 0.8995 | 797.554 | 2.62
313.15 K, x2 = 0.101 | 786.977 | 2.591
313.15 K, x2 = 0.2029 | 787.84 | 2.587
313.15 K, x2 = 0.3008 | 788.67 | 2.562
313.15 K, x2 = 0.4 | 789.511 | 2.511
313.15 K, x2 = 0.5 | 790.349 | 2.462
313.15 K, x2 = 0.5999 | 791.184 | 2.424
313.15 K, x2 = 0.6999 | 792.012 | 2.391
313.15 K, x2 = 0.7993 | 792.829 | 2.363
313.15 K, x2 = 0.8995 | 793.633 | 2.327
318.15 K, x2 = 0.101 | 782.93 | 2.236
318.15 K, x2 = 0.2029 | 783.806 | 2.234
318.15 K, x2 = 0.3008 | 784.646 | 2.219
318.15 K, x2 = 0.4 | 785.496 | 2.191
318.15 K, x2 = 0.5 | 786.344 | 2.158
318.15 K, x2 = 0.5999 | 787.188 | 2.129
318.15 K, x2 = 0.6999 | 788.027 | 2.111
318.15 K, x2 = 0.7993 | 788.855 | 2.094
318.15 K, x2 = 0.8995 | 789.67 | 2.068
323.15 K, x2 = 0.101 | 778.816 | 1.964
323.15 K, x2 = 0.2029 | 779.704 | 1.958
323.15 K, x2 = 0.3008 | 780.558 | 1.951
323.15 K, x2 = 0.4 | 781.419 | 1.931
323.15 K, x2 = 0.5 | 782.279 | 1.91
323.15 K, x2 = 0.5999 | 783.136 | 1.89
323.15 K, x2 = 0.6999 | 783.985 | 1.877
323.15 K, x2 = 0.7993 | 784.825 | 1.864
323.15 K, x2 = 0.8995 | 785.654 | 1.843
328.15 K, x2 = 0.101 | 774.633 | 1.68
328.15 K, x2 = 0.2029 | 775.537 | 1.692
328.15 K, x2 = 0.3008 | 776.405 | 1.689
328.15 K, x2 = 0.4 | 777.281 | 1.684
328.15 K, x2 = 0.5 | 778.156 | 1.673
328.15 K, x2 = 0.5999 | 779.026 | 1.668
328.15 K, x2 = 0.6999 | 779.893 | 1.662
328.15 K, x2 = 0.7993 | 780.744 | 1.658
328.15 K, x2 = 0.8995 | 781.588 | 1.65
333.15 K, x2 = 0.101 | 770.368 | 1.507
333.15 K, x2 = 0.2029 | 771.292 | 1.523
333.15 K, x2 = 0.3008 | 772.177 | 1.52
333.15 K, x2 = 0.4 | 773.068 | 1.511
333.15 K, x2 = 0.5 | 773.961 | 1.499
333.15 K, x2 = 0.5999 | 774.846 | 1.489
333.15 K, x2 = 0.6999 | 775.732 | 1.488
333.15 K, x2 = 0.7993 | 776.596 | 1.484
333.15 K, x2 = 0.8995 | 777.457 | 1.48
338.15 K, x2 = 0.101 | 766.021 | 1.342
338.15 K, x2 = 0.2029 | 766.966 | 1.363
338.15 K, x2 = 0.3008 | 767.871 | 1.361
338.15 K, x2 = 0.4 | 768.778 | 1.357
338.15 K, x2 = 0.5 | 769.689 | 1.351
338.15 K, x2 = 0.5999 | 770.594 | 1.343
338.15 K, x2 = 0.6999 | 771.495 | 1.341
338.15 K, x2 = 0.7993 | 772.378 | 1.338
338.15 K, x2 = 0.8995 | 773.258 | 1.335
343.15 K, x2 = 0.101 | 761.578 | 1.204
343.15 K, x2 = 0.2029 | 762.548 | 1.226
343.15 K, x2 = 0.3008 | 763.474 | 1.23
343.15 K, x2 = 0.4 | 764.4 | 1.228
343.15 K, x2 = 0.5 | 765.333 | 1.225
343.15 K, x2 = 0.5999 | 766.26 | 1.218
343.15 K, x2 = 0.6999 | 767.182 | 1.215
343.15 K, x2 = 0.7993 | 768.085 | 1.213
343.15 K, x2 = 0.8995 | 768.986 | 1.211
